Results on one compound are retold here after paper PMC4551558, “Differential inhibition of PDKs by phenylbutyrate and enhancement of pyruvate dehydrogenase complex activity by combination with dichloroacetate” (Journal of Inherited Metabolic Disease, 2015).

Assay [1] has as its target PDK1 (Homo sapiens, UniProt Q15118). Description: […]-phosphate incorporation into recombinant E1alpha by recombinant human PDK1; Lineweaver-Burk kinetics. The assay is classed as biochemical. To be noted: read-out: Ki (phenylbutyrate).
Assay [2] has as its target PDK3 (Homo sapiens, UniProt Q15120). The experiment in a line: […]-phosphate incorporation into recombinant E1alpha by recombinant human PDK3; Lineweaver-Burk kinetics. The assay is classed as biochemical. The settings on record: read-out: Ki (phenylbutyrate).

The term Ki denotes the equilibrium dissociation constant of an inhibitor or competing ligand from its target.

PDK1, sequence (Q15118 29-436): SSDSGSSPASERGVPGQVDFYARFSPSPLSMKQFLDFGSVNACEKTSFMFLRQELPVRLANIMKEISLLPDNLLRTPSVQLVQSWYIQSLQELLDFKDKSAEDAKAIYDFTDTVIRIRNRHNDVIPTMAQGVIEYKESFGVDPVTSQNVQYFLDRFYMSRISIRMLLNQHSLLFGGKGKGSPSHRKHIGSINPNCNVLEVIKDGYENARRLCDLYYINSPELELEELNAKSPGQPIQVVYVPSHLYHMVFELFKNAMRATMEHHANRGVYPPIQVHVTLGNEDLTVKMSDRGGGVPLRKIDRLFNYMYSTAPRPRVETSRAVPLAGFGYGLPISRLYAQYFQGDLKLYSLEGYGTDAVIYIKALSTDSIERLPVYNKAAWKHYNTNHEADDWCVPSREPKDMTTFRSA
PDK1, sequence (P08559 30-390 partner): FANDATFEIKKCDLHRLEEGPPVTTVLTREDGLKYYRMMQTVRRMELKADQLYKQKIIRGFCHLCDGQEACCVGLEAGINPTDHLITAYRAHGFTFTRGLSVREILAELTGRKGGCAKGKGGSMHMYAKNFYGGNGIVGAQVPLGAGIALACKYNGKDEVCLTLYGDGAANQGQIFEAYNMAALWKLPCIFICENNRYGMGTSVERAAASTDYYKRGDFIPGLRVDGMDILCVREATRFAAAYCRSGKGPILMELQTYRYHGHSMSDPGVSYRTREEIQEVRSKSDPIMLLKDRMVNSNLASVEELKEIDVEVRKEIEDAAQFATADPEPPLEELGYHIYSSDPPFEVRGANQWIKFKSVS
PDK3, sequence (Q15120 whole entry): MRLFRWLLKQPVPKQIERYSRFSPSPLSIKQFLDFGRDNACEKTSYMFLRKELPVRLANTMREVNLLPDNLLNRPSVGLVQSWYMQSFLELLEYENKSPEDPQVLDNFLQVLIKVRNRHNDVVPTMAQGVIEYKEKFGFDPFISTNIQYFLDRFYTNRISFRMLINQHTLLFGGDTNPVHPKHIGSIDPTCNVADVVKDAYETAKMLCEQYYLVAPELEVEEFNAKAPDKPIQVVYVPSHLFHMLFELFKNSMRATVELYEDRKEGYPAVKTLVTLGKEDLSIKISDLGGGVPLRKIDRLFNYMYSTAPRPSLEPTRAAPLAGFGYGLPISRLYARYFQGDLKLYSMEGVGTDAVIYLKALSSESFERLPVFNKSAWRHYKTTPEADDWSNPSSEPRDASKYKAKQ
PDK3, sequence (P08559 30-390 partner): as the sequence (P08559 30-390 partner) above

Consider `O=C(O)CCCc1ccccc1` [PB, phenylbutyrate], for which the inhibition constant (Ki) amounted to 7.1 ± 0.15 mM in assay [1] and 0.98 ± 0.19 mM in assay [2].
